Results as given in publication PMC6768323, “Adverse Maternal, Fetal, and Postnatal Effects of Hexafluoropropylene Oxide Dimer Acid (GenX) from Oral Gestational Exposure in Sprague-Dawley Rats” (Environmental Health Perspectives, 2019).
“And” between values parts separate entries of the source, which are not always exact repeats. Equal values may be shown once.

Assays:
fetal testis = experiment: Fetal testis custom gene array for phthalate-like effects; assay type: in vivo, Sprague-Dawley rats; settings: 62.5-500 mg/kg/d
Experimental: For the first two blocks, spanning the full dose range, late gestation (GD18) dams were euthanized by decapitation at ∼2h after the final oral dose [ ∼0830–1000 hours Eastern Standard Time (EST)]. Trunk blood was collected and serum isolated via centrifugation ( 10,000×g for 15 min at 4°C) in vacutainer tubes, transferred to 1.5-mL microcentrifuge tubes and stored at −80°C . Dam liver weight was recorded and a sample of liver tissue was collected into a polypropylene microcentrifuge tube containing 500μL TRIzol Reagent (Invitrogen) on ice. Fetuses were removed and two randomly selected fetuses per litter were weighed. […] Ex vivo fetal testis testosterone production was measured as previously reported ([Wilson et al. 2004b]) except the radioimmunoassay (RIA) utilized here was supplied by ALPCO (Catalog No. 72-TESTO-CT2, ALPCO). […]
Gene expression in fetal testes and fetal/maternal livers was assessed using reverse transcriptase real-time PCR of cDNA synthesized from RNA extracted from sample homogenates. […] RNA concentration and purity (260:280 ratio ≥1.8 ) were determined with a NanoDrop 2000 spectrophotometer (Thermo Scientific). […] PCR reactions were run using RT2 SYBR Green quantitative PCR (qPCR) Master Mix (SABioscience) on an iCycler iQ Real-Time Detection System (Bio-Rad) for fetal testes and on a CFX96 Touch Real-Time Detection System (Bio-Rad) for maternal and fetal livers. […]

[1] = tested on: pregnant Sprague-Dawley rats; experiment: Maternal and fetal effects of GD14-18 oral dosing (weights, reproductive output); assay type: in vivo
Experimental: A total of three blocks of 15 dams per block were dosed once daily from GD14–18 with either water vehicle (control) or HFPO-DA to evaluate fetal and maternal effects (Figure 1A). The first block of dams was dosed with control, 62.5, 125, 250, or 500mg/kg HFPO-DA ( n=3 dams for each). The second and third blocks of dams were dosed with control, 1, 3, 10, or 30mg/kg HFPO-DA ( n=3 per dose per block). Total sample sizes were n=9 for control, n=6 for 1, 3, 10, 30mg/kg , and n=3 for 62.5, 125, 250, and 500mg/kg HFPO-DA. In the first two blocks, spanning the entire dose range, we evaluated fetal testis testosterone production, fetal testis gene expression, fetal and maternal liver gene expression, fetal body weight, and maternal serum thyroid hormone and lipid concentrations. In the third block, encompassing the lower dose range utilized here, we collected fetal plasma for measuring HFPO-DA concentrations. Across all three blocks we evaluated maternal weight gain during dosing, reproductive output (number of fetuses and resorptions), maternal serum HFPO-DA concentration, and maternal liver weight at necropsy.
For the first two blocks, spanning the full dose range, late gestation (GD18) dams were euthanized by decapitation at ∼2h after the final oral dose [ ∼0830–1000 hours Eastern Standard Time (EST)]. Trunk blood was collected and serum isolated via centrifugation ( 10,000×g for 15 min at 4°C) in vacutainer tubes, transferred to 1.5-mL microcentrifuge tubes and stored at −80°C . Dam liver weight was recorded and a sample of liver tissue was collected into a polypropylene microcentrifuge tube containing 500μL TRIzol Reagent (Invitrogen) on ice. Fetuses were removed and two randomly selected fetuses per litter were weighed. Fetal testes were collected from all male pups with a single testis from the first three males used for determination of ex vivo testosterone production and the remaining testes were homogenized and preserved in TRIzol Reagent for gene expression analysis. The liver was collected from a single, randomly selected fetus per dam/litter for gene expression analysis and transferred to a polypropylene microcentrifuge tube containing 500μL TRIzol Reagent (Invitrogen) on ice. Both dam and fetal liver samples were individually homogenized using a Bullet Blender (Next Advance) with 1-mm zirconium oxide beads, transferred to clean tubes, and stored at −80°C prior to RNA extraction (see below). Ex vivo fetal testis testosterone production was measured as previously reported ([Wilson et al. 2004b]) except the radioimmunoassay (RIA) utilized here was supplied by ALPCO (Catalog No. 72-TESTO-CT2, ALPCO). Briefly, one testis was isolated from each of three separate male fetuses in each litter and incubated in a humidified atmosphere at 37°C for 3 h in 500μL of M-199 media (phenol red–free; Hazelton Biologics, Inc.) supplemented with 10% dextran-coated charcoal-stripped fetal bovine serum (Hyclone Laboratories) in 24-well plates under gentle agitation. After incubation, media were removed and stored in siliconized microcentrifuge tubes at −80°C until RIA analyses, which were performed according to manufacturer specifications.
For the third block, dosed with the lower dose range ( 1–30mg/kg HFPO-DA), late gestation (GD18) dams were euthanized by decapitation ∼2h after the final dose, liver weight was recorded, and trunk blood was collected for serum isolation. Serum was isolated from trunk blood via centrifugation ( 10,000×g; 15 min; 4°C) using Becton Dickinson vacutainer tubes and stored in 1.5-mL siliconized microcentrifuge tubes at −80°C for future analyses. Fetuses were removed and fetal blood was collected from the jugular vein from all fetuses within a litter using heparinized glass capillary tubes. Blood was expelled from capillary tubes using fine-tip disposable transfer pipets into a microcentrifuge tube forming a single composite sample per litter. […]

O=C(O)C(F)(OC(F)(F)C(F)(F)C(F)(F)F)C(F)(F)F (stereo not drawn) [HFPO-DA, Hexafluoropropylene oxide dimer acid]
fetal testis gene expression versus controls (fetal testis): not significantly different from controls
numbers of live pups, resorptions, fetal body weight compared with controls ([1]; 1-500 mg/kg): no significant differences
Dam BW GD18 ([1]; 1-500 mg/kg/d): 378.6 ± 19.1 g and 364.1 ± 15.6 g and 371.5 ± 11.4 g and 354.3 ± 12.4 g and 366.2 ± 9.9 g and 346.7 ± 5.5 g and 350.2 ± 6.0 g and 369.8 ± 15.1 g
No. fetuses ([1]; 1-500 mg/kg/d): 12.3 ± 1.0 and 13.3 ± 0.6 and 13.2 ± 0.5 and 13.5 ± 0.4 and 12.7 ± 0.9 and 14.3 ± 0.3 and 13.7 ± 1.3 and 14.7 ± 0.3
maternal body weight gain compared with controls ([1]; GD14-18 dosing window): significantly less body weight gain at the 250- and 500-mg/kg dose levels
Dam liver wt ([1]; GD18, 1-500 mg/kg/d): 15.8 ± 0.7 g and 16.7 ± 1.1 g and 16.5 ± 0.5 g and 17.2 ± 0.5 g and 17.8 ± 0.7 g and 19.1 ± 0.6 g and 19.6 ± 0.3 g and 19.2 ± 0.6 g
Fetal BW ([1]; GD18, 1-500 mg/kg/d): 908.7 ± 27.0 mg and 816.7 ± 24.2 mg and 841.0 ± 38.4 mg and 842.2 ± 50.5 mg and 863.7 ± 31.7 mg and 841.8 ± 46.7 mg and 889.1 ± 26.9 mg and 808.2 ± 88.9 mg
Dam BW GD14 ([1]; dose order 1, 3, 10, 30, 62.5, 125, 250, 500 mg/kg/d): 337.0 ± 12.9 g and 341.6 ± 14.1 g and 330.8 ± 13.4 g and 338.0 ± 11.5 g and 320.9 ± 8.7 g and 330.6 ± 8.8 g and 325.8 ± 3.7 g and 339.1 ± 10.5 g
dose with higher maternal liver weights ([1]; oral GD14-18): ≥ 62.5 mg/kg
